Measured values reported in patent US20260070922A1, “PYRAZOLE AND IMIDAZOLE DERIVATIVES AS DUAL OREXIN AND KAPPA-OPIOID RECEPTORS MODULATORS COMPOSITION, METHODS FOR TREATING NEUROLOGICAL AND PSYCHIATRIC DISORDERS” (HAGER BIOSCIENCES, LLC, priority 2022, published 2026).

Key:
[1] = target: T1, human k-opioid receptor (kOR) (Homo sapiens, UniProt P41145); experiment: Human k-opioid (KOP) receptor (agonist radioligand [3H]U-69593) binding assay, transfected RBL cell membranes; settings: read-out: KOR % Inh. @ 1 uM
T1 construct: expressed in transfected cells; host or cells: RBL cells (membrane homogenates)
Protocol: Human k-Opioid (KOP) Receptor (Agonist Radioligand) Binding Assay
Purpose: Evaluation of the affinity of compounds for the human k-opioid receptor in transfected RBL cells determined in a radioligand binding assay.
Experimental protocol: Cell membrane homogenates (about 80 μg protein) are incubated for 60 min at 22° C. with 0.5 nM [3H]U-69593 in the absence or presence of the test compound in a buffer containing 50 mM Tris-HCl (pH 7.4), 10 mM MgCl2 and 1 mM EDTA. Nonspecific binding is determined in the presence of 10 μM naloxone. Following incubation, the samples are filtered rapidly under vacuum through glass fiber filters ([…], Packard) presoaked with 0.3% PEI and rinsed several times with ice-cold 50 mM Tris-HCl using a 96-sample cell harvester (Unifilter, Packard). The filters are dried then counted for radioactivity in a scintillation counter (Topcount, Packard) using a scintillation cocktail (Microscint 0, Packard). The results are expressed as a percent inhibition of the control radioligand specific binding. The standard reference compound is U-50488, which is tested in each experiment at several concentrations to obtain a competition curve from which its IC50 is calculated.

[2] = target: T2, human orexin-2 receptor (OX2R) (Homo sapiens, UniProt O43614); experiment: In vitro orexin antagonism assay: intracellular calcium measurement (FLIPR), orexin-A 3 nM as agonist; assay type: cell-based; settings: for IC50: first value of IC50/Kb cell; for inhibition at 1 µM: read-out: OX2R, % Inh. @ 1 uM; for Kb: second value of IC50/Kb cell
T2 construct: expressed in transfected cells; host or cells: CHO cells (G418 selection)
T2 sequence (O43614 1-444): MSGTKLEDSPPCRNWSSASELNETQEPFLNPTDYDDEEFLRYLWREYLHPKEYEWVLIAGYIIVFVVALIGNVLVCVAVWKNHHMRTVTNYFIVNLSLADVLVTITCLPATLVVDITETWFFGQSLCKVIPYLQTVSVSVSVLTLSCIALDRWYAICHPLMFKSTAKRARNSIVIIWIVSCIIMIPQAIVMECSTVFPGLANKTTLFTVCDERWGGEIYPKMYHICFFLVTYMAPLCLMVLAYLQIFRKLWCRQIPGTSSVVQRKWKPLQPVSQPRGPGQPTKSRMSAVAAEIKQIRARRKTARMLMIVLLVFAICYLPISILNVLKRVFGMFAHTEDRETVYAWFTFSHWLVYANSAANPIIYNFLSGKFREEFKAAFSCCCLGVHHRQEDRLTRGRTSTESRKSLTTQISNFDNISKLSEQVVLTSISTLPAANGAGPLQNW
In short: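 Fluorescence peak on 3 nM orexin-A challenge, read by FLIPR and compared with vehicle, yields IC50 (geometric mean when repeated; may be normalized to an on-plate reference). Antagonists were added 120 min beforehand to fluo-4-loaded recombinant CHO cells expressing human OX1R or OX2R.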

[3] = target: T3, Orexin type 1 (OX1R) receptor (Homo sapiens, UniProt O43613); experiment: as above; assay type: cell-based; settings: for IC50: first value of IC50/Kb cell; for inhibition at 1 µM: read-out: OX1R, % Inh. @ 1 uM; for Kb: second value of IC50/Kb cell
T3 construct: expressed in transfected cells; host or cells: CHO cells (G418 selection)
T3 sequence (O43613 1-425): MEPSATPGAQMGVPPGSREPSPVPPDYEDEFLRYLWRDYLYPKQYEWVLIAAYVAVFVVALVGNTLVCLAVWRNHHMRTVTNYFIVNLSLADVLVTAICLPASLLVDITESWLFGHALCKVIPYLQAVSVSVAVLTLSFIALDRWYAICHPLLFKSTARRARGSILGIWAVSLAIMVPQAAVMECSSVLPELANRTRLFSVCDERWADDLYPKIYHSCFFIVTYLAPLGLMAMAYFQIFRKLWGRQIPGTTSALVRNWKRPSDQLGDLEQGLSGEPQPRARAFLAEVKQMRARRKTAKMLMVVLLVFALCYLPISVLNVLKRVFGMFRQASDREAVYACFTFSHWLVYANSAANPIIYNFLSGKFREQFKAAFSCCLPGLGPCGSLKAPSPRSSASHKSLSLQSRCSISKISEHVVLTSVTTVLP
In short: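 CHO cells expressing the human orexin receptor were loaded with 3 μM fluo-4 AM plus 5 mM probenecid, then exposed to antagonist for 120 min before 3 nM orexin-A (final) was added on a FLIPR.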

T1 sequence (P41145 whole entry): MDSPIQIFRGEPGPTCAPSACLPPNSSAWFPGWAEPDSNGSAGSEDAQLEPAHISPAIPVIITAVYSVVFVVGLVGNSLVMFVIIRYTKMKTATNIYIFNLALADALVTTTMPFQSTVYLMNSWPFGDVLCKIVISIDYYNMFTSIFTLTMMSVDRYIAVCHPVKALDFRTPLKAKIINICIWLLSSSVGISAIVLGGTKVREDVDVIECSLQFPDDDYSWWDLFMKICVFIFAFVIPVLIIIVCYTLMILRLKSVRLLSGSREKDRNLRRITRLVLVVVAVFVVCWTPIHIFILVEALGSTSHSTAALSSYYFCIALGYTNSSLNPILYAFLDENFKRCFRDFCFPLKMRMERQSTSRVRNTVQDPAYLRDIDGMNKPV

SMILES | inhibition at 1 µM [1] [%] | IC50 [2] [nM] | inhibition at 1 µM [2] [%] | Kb [2] [nM] | IC50 [3] [nM] | inhibition at 1 µM [3] [%] | Kb [3] [nM]
O=C(c1c(-c2ccccc2)nn2cccnc12)N1CCC[C@H]1Cn1ccc(-c2ccccc2)n1 [Example 133] | 44 | 83 | 81 | 14 | 4 | 99 | 1
O=C(c1nn2c(c1-c1ccccc1)COCC2)N1CCC[C@H]1Cn1ccc(-c2ccccn2)n1 [Example 134] | 0 |  | 44 |  | 12 | 100 | 3
O=C(c1nn2c(c1-c1ccccc1)OCCC2)N1CCC[C@H]1Cn1ccc(-c2ccccn2)n1 [Example 135] | 22 | 660 | 71 | 110 | 4 | 100 | 1
O=C(c1nn2cccnc2c1-c1ccccc1)N1CCC[C@H]1Cn1ccc(-c2ccccc2)n1 [Example 136] | 26 | 3 | 74 | 0.5 | 9 | 99 | 1
O=C(c1nn2cccnc2c1-c1ccccc1)N1CCC[C@H]1Cn1ccc(-c2ccccn2)n1 [Example 137] | 9 | 490 | 52 | 85 | 5 | 99 | 1
O=C(c1c(-c2ncccn2)nn2ccccc12)N1CCC[C@H]1Cn1ccc(-c2ccccn2)n1 [Example 138] | 0 | 490 | 62 | 84 | 9 | 100 | 2

Results, then the molecule that gave them:

inhibition at 1 µM [1] [%] | IC50 [2] [nM] | inhibition at 1 µM [2] [%] | Kb [2] [nM] | IC50 [3] [nM] | inhibition at 1 µM [3] [%] | Kb [3] [nM] | SMILES
0 | 63 | 82 | 11 | 8 | 100 | 2 | O=C(c1c(-c2ccccn2)nn2ccccc12)N1CCC[C@H]1Cn1ccc(-c2ccccn2)n1 [Example 139]
14 | 190 | 59 | 32 | 4 | 100 | 1 | O=C(c1c(-c2ccccc2)nn2cccnc12)N1CCC[C@H]1Cn1ccc(-c2ccccn2)n1 [Example 140]
40 |  | 33 |  | 5 | 100 | 1 | O=C(c1nn2c(c1-c1ccccc1)COCC2)N1CCC[C@H]1COc1ccc(C(F)(F)F)cn1 [Example 141]
3 |  | 31 |  | 210 | 98 | 45 | C[C@@]1(COc2ccc(C(F)(F)F)cn2)CCCN1C(=O)c1nn2ccccc2c1-c1ccccc1 [Example 143]
4 |  | 13 |  | 250 | 98 | 53 | C[C@@]1(COc2ccc(C(F)(F)F)cn2)CCCN1C(=O)c1nc2ccccn2c1-c1ccccc1 [Example 144]
12 |  | 5 |  | 270 | 96 | 56 | C[C@@]1(COc2ccc(C(F)(F)F)cn2)CCCN1C(=O)c1nn2c(c1-c1ccccc1)COCC2 [Example 145]
0 |  | 27 |  | 350 | 99 | 74 | C[C@@]1(COc2ccc(C(F)(F)F)cn2)CCCN1C(=O)c1nn2cccnc2c1-c1ccccc1 [Example 146]
